Measurements from patent US9499535B2, “Kinase inhibitors” (ORIGENIS GMBH, priority 2011, dated 2016).

Key:
[1] = molecular target: T1, SYK kinase (Homo sapiens, UniProt P43405); test: SYK assay (OMNIA Kinase Assay, Invitrogen); assay type: biochemical; settings: apparent Ki calculated from the IC50 using the Cheng-Prusoff equation; 1 mM ATP, 10 μM Peptide Substrate; read-out: SYK Activities: Ki
T1 construct: purchased Invitrogen, Carlsbad
Procedure, shortened: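 Reaction velocities were measured from kinetic fluorescence reads (360/485 nm, every 30 s over 30 min) of Mg2+-chelated SOX signal. Conditions were 1 mM ATP, 10 μM Omnia Tyr 7 peptide and 0.2 mM DTT at 30° C. Sigmoidal IC50 fits were converted to apparent Ki using Cheng-Prusoff.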

[2] = molecular target: LRRK2 (Homo sapiens, UniProt Q5S007); test: LRRK2 assay (LanthaScreen Eu Kinase Binding Assay); settings: 5 nM LRRK2, 10 nM tracer 236, RT 1 h; read-out: LRRK2 Activites: IC50
Sequence of LRRK2 (Q5S007 970-2527 limits assumed): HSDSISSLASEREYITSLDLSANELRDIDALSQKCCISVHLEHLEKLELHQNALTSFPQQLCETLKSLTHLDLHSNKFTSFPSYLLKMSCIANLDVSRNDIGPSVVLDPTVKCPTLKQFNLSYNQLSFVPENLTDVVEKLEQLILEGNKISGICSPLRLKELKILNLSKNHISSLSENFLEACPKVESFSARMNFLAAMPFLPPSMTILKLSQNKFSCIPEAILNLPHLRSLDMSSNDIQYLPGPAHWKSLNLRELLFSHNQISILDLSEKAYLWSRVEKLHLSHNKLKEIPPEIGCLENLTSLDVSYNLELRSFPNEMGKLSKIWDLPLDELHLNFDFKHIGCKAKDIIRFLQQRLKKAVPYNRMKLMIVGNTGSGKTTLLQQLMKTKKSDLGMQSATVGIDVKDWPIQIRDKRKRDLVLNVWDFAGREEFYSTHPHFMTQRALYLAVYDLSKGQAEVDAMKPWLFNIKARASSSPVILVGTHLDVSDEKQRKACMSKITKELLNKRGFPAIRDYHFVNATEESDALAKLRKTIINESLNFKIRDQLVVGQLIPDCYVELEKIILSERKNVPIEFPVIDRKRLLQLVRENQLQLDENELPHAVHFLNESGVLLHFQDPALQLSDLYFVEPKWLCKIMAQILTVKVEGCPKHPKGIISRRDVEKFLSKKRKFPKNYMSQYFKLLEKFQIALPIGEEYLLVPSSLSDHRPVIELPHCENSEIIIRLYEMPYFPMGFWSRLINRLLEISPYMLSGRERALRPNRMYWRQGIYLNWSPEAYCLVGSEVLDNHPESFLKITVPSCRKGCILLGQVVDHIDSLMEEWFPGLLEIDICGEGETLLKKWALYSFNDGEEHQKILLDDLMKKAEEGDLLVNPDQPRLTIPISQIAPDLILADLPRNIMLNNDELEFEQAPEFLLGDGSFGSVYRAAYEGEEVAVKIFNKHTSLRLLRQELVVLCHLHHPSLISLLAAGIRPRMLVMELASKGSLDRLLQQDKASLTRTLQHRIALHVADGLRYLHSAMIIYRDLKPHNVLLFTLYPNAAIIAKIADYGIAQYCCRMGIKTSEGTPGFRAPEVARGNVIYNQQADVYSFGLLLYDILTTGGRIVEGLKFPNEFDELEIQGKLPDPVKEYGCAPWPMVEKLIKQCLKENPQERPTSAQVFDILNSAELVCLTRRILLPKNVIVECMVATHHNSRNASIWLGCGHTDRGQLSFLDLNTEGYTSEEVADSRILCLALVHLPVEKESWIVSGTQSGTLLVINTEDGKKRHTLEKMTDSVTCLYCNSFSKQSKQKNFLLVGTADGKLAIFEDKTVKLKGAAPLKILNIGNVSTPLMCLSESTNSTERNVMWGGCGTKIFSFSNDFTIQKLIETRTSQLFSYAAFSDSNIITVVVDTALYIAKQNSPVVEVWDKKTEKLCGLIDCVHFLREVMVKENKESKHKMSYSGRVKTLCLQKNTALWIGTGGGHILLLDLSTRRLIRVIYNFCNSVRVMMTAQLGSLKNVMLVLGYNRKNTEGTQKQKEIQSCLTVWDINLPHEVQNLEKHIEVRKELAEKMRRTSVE
Procedure, shortened: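 IC50 was derived from a sigmoidal dose-response fit with variable slope, plotting emission ratio against inhibitor concentration. The read-out is loss of FRET between a europium-labelled anti-tag antibody on the kinase and a tracer displaced by inhibitor.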

[3] = molecular target: MYLK (Homo sapiens, UniProt Q15746); test: MYLK assay (LanthaScreen Eu Kinase Binding Assay); settings: 5 nM MYLK, 30 nM tracer 236, RT 1 h; read-out: MYLK Activites: IC50
Sequence of MYLK (Q15746 whole entry): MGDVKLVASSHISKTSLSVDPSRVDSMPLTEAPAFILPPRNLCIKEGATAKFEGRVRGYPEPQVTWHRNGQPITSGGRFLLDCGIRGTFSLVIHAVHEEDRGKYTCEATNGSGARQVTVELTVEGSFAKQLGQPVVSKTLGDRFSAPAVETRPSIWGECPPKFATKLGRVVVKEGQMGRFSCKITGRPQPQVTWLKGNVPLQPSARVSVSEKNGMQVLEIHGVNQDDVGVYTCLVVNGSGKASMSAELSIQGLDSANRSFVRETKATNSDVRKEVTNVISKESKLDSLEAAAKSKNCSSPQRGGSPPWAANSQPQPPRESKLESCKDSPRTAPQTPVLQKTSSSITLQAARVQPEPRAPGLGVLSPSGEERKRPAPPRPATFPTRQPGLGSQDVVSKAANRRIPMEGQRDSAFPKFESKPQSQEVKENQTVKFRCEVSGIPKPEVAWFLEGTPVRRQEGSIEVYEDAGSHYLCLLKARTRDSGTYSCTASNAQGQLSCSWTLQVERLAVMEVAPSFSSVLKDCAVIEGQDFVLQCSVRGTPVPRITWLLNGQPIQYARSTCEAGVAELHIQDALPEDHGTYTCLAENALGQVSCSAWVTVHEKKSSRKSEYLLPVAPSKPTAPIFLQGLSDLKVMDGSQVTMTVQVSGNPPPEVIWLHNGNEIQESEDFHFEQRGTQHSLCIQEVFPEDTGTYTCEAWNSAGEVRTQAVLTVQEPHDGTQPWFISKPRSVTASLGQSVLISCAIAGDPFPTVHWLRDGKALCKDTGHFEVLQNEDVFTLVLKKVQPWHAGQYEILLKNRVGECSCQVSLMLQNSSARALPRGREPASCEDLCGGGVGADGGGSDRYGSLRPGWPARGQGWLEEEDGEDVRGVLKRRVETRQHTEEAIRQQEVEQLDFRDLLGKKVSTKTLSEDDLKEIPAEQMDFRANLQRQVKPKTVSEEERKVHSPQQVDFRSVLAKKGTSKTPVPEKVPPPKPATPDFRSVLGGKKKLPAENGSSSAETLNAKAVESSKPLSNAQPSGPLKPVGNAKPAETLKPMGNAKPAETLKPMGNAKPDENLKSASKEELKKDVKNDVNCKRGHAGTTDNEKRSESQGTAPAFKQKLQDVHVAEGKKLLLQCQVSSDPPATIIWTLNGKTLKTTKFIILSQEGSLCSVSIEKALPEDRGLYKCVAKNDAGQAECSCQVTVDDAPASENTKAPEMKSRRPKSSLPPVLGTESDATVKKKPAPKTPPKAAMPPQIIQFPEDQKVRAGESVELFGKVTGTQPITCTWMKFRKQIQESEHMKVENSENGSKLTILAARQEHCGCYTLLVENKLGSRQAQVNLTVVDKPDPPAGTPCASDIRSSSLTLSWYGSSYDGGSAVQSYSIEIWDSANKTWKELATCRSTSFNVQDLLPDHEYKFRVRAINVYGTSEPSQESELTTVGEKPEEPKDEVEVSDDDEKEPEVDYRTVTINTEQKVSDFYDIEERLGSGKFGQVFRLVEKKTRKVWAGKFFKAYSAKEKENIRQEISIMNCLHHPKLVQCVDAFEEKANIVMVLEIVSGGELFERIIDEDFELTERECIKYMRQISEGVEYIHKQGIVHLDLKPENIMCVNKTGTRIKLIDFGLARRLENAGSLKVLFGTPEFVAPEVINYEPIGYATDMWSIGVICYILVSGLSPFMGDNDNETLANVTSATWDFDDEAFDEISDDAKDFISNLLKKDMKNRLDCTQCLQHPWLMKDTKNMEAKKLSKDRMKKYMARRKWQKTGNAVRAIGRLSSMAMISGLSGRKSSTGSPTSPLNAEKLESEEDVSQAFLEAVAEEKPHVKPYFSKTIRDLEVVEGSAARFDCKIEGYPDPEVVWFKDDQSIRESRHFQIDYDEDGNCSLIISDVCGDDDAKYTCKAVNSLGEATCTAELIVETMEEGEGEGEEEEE
Procedure, shortened: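 TR-FRET tracer-displacement binding: 5 nM MYLK with 2 nM Eu-anti-GST antibody and 30 nM tracer 236 in kinase buffer A, 1 h at RT. The 665/615 nm emission ratio was plotted against inhibitor concentration; IC50 from variable-slope sigmoidal fit.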

Compound	Ki [1] [nM]	IC50 [2] [nM]	IC50 [3] [nM]
COc1ccc2nc(Nc3ccc(OC4CCN(C)CC4)nc3)c3n[nH]cc3c2c1 [Example #255, (8-Methoxy-2H-pyrazolo[3,4-c]quinolin-4-yl)-[6-(1-methyl-piperidin-4-yloxy)-pyridin-3-yl]-amine]	10 to 100	100 to 1000	< 5000
COc1ccc2c(c1)nc(Nc1ccc3c(c1)NC(=O)CCC3)c1n[nH]cc12 [Example #257, 8-((7-methoxy-2H-pyrazolo[3,4-c]quinolin-4-yl)amino)-4,5-dihydro-1H-benzo[b]azepin-2(3H)-one]	< 10	100 to 1000	< 5000
COc1cccc2c1nc(Nc1ccc3c(c1)OCCO3)c1n[nH]cc12 [Example #258, (2,3-Dihydro-benzo[1,4]dioxin-6-yl)-(6-methoxy-2H-pyrazolo[3,4-c]quinolin-4-yl)-amine]	100 to 1000	100 to 1000	< 5000
COc1ccc2c(c1)nc(Nc1ccc(N3CCN(C4CC4)CC3)cc1)c1n[nH]cc12 [Example #262, [4-(4-Cyclopropyl-piperazin-1-yl)-phenyl]-(7-methoxy-2H-pyrazolo[3,4-c]quinolin-4-yl)-amine]	10 to 100	100 to 1000	< 5000
COc1ccc2c(c1)nc(Nc1ccc3[nH]c(C)nc3c1)c1n[nH]cc12 [Example #264, (7-Methoxy-2H-pyrazolo[3,4-c]quinolin-4-yl)-(2-methyl-1H-benzoimidazol-5-yl)-amine]	10 to 100	100 to 1000	< 5000
COc1ccc2c(c1)nc(Nc1ccc3c(c1)NC(=O)CO3)c1n[nH]cc12 [Example #266, 6-((7-methoxy-2H-pyrazolo[3,4-c]quinolin-4-yl)amino)-2H-benzo[b][1,4]oxazin-3(4H)-one]	< 10	10 to 100	< 5000
COc1cccc2c1nc(Nc1ccc3[nH]ncc3c1)c1n[nH]cc12 [Example #268, (1H-Indazol-5-yl)-(6-methoxy-2H-pyrazolo[3,4-c]quinolin-4-yl)-amine]	10 to 100	100 to 1000	< 5000
COc1ccc2nc(Nc3ccc(N4CCN(C5CCCC5)CC4)cc3)c3n[nH]cc3c2c1 [Example #269, [4-(4-Cyclopentyl-piperazin-1-yl)-phenyl]-(8-methoxy-2H-pyrazolo[3,4-c]quinolin-4-yl)-amine]	100 to 1000	10 to 100	< 5000
COc1ccc2nc(Nc3ccc(N4CCN(CC(C)C)CC4)cc3)c3n[nH]cc3c2c1 [Example #270, [4-(4-Isobutyl-piperazin-1-yl)-phenyl]-(8-methoxy-2H-pyrazolo[3,4-c]quinolin-4-yl)-amine]	< 10	100 to 1000	< 5000
COc1ccc2nc(Nc3ccc(N4CCN(C(C)C)CC4)cc3)c3n[nH]cc3c2c1 [Example #271, [4-(4-Isopropyl-piperazin-1-yl)-phenyl]-(8-methoxy-2H-pyrazolo[3,4-c]quinolin-4-yl)-amine]	< 10	10 to 100	< 5000
COc1ccc2nc(Nc3ccc(N4CCN(CC5CC5)CC4)cc3)c3n[nH]cc3c2c1 [Example #272, [4-(4-Cyclopropylmethyl-piperazin-1-yl)-phenyl]-(8-methoxy-2H-pyrazolo[3,4-c]quinolin-4-yl)-amine]	< 10	10 to 100	< 5000
COc1ccc2nc(Nc3ccc(N4CCN(C(C)(C)C)CC4)cc3)c3n[nH]cc3c2c1 [Example #273, [4-(4-tert-Butyl-piperazin-1-yl)-phenyl]-(8-methoxy-2H-pyrazolo[3,4-c]quinolin-4-yl)-amine]	10 to 100	100 to 1000	< 5000
COc1ccc2nc(Nc3ccc(N4CCN(CC(=O)O)CC4)cc3)c3n[nH]cc3c2c1 [Example #277, 2-(4-(4-((8-methoxy-2H-pyrazolo[3,4-c]quinolin-4-yl)amino)phenyl)piperazin-1-yl)acetic-acid]	10 to 100	10 to 100	< 5000
COc1ccc2nc(Nc3ccc(CO)cc3)c3n[nH]cc3c2c1 [Example #280, (4-((8-methoxy-2H-pyrazolo[3,4-c]quinolin-4-yl)amino)phenyl)methanol]	10 to 100	100 to 1000	< 5000

Continued, values first:

Ki [1] [nM]	IC50 [2] [nM]	IC50 [3] [nM]	Compound
10 to 100	10 to 100	< 5000	COc1ccc2nc(Nc3ccc(N4CCN(CCN(C)C)CC4)cc3)c3n[nH]cc3c2c1 [Example #281, {4-[4-(2-Dimethylamino-ethyl)-piperazin-1-yl]-phenyl}-(8-methoxy-2H-pyrazolo[3,4-c]quinolin-4-yl)-amine]
10 to 100	100 to 1000	< 5000	COc1cc(OC)c2nc(Nc3ccc(CN4CCN(C)CC4)cc3)c3n[nH]cc3c2c1 [Example #282, (6,8-Dimethoxy-2H-pyrazolo[3,4-c]quinolin-4-yl)-[4-(4-methyl-piperazin-1-ylmethyl)-phenyl]-amine]
10 to 100	100 to 1000	< 5000	COc1cc(OC)c2nc(Nc3ccc(C(=O)N4CCN(C)CC4)cc3)c3n[nH]cc3c2c1 [Example #283, (4-((6,8-dimethoxy-2H-pyrazolo[3,4-c]quinolin-4-yl)amino)phenyl)(4-methylpiperazin-1-yl)methanone]
10 to 100	100 to 1000	< 5000	COc1cc(OC)c2nc(Nc3ccc(CN(C)C)cc3)c3n[nH]cc3c2c1 [Example #284, (6,8-Dimethoxy-2H-pyrazolo[3,4-c]quinolin-4-yl)-(4-dimethylaminomethyl-phenyl)-amine]
10 to 100	< 10	< 5000	COc1ccc2nc(Nc3ccc4cc(C(=O)O)ccc4c3)c3n[nH]cc3c2c1 [Example #286, 6-((8-methoxy-2H-pyrazolo[3,4-c]quinolin-4-yl)amino)-2-naphthoic acid]
10 to 100	100 to 1000	< 5000	COc1ccc2nc(Nc3ccc(OCC(=O)O)cc3)c3n[nH]cc3c2c1 [Example #290, 2-(4-((8-methoxy-2H-pyrazolo[3,4-c]quinolin-4-yl)amino)phenoxy)acetic acid]
10 to 100	100 to 1000	< 5000	COc1ccc2nc(Nc3ccc4c(c3)CN(C)C4)c3n[nH]cc3c2c1 [Example #294, 8-methoxy-N-(2-methylisoindolin-5-yl)-2H-pyrazolo[3,4-c]quinolin-4-amine]
100 to 1000	100 to 1000	< 5000	O=C(O)c1cccc(Nc2nc3ccc(O)cc3c3c[nH]nc23)c1 [Example #296, 3-((8-hydroxy-2H-pyrazolo[3,4-c]quinolin-4-yl)amino)benzoic acid]
10 to 100	10 to 100	< 5000	COc1ccc2nc(Nc3ccc(C(=O)N(C)CCN(C)C)cc3)c3n[nH]cc3c2c1 [Example #300, N-(2-(dimethylamino)ethyl)-4-((8-methoxy-2H-pyrazolo[3,4-c]quinolin-4-yl)amino)-N-methylbenzamide]
10 to 100	10 to 100	< 5000	COCC1CCCN1C(=O)c1ccc(Nc2nc3ccc(OC)cc3c3c[nH]nc23)cc1 (stereo not drawn) [Example #301, (4-((8-methoxy-2H-pyrazolo[3,4-c]quinolin-4-yl)amino)phenyl)(2-(methoxymethyl)pyrrolidin-1-yl)methanone]
100 to 1000	10 to 100	< 5000	COc1ccc2nc(Nc3ccc(C(=O)N(C)C)cc3)c3n[nH]cc3c2c1 [Example #303, 4-((8-methoxy-2H-pyrazolo[3,4-c]quinolin-4-yl)amino)-N,N-dimethylbenzamide]
10 to 100	100 to 1000	< 5000	COc1ccc2nc(Nc3ccc4c(c3)CCCN4C)c3n[nH]cc3c2c1 [Example #308, 8-methoxy-N-(1-methyl-1,2,3,4-tetrahydroquinolin-6-yl)-2H-pyrazolo[3,4-c]quinolin-4-amine]
100 to 1000	100 to 1000	< 5000	COc1ccc2nc(Nc3cccc(S(C)(=O)=O)c3)c3n[nH]cc3c2c1 [Example #320, 8-methoxy-N-(3-(methylsulfonyl)phenyl)-2H-pyrazolo[3,4-c]quinolin-4-amine]
100 to 1000	100 to 1000	< 5000	CC(=O)N1CCN(c2ccc(Nc3nc4ccc(F)cc4c4cn[nH]c34)cc2)CC1 [Example #323, 1-(4-(4-((8-fluoro-3H-pyrazolo[3,4-c]quinolin-4-yl)amino)phenyl)piperazin-1-yl)ethan-1-one]
10 to 100	100 to 1000	< 5000	O=C1COc2ccc(Nc3nc4ccc(F)cc4c4cn[nH]c34)cc2N1 [Example #324, 6-((8-fluoro-3H-pyrazolo[3,4-c]quinolin-4-yl)amino)-2H-benzo[b][1,4]oxazin-3(4H)-one]
< 10	100 to 1000	< 5000	CN1CCN(c2ccc(Nc3nc4ccc(I)cc4c4cn[nH]c34)cc2)CC1 [Example #333, 8-iodo-N-(4-(4-methylpiperazin-1-yl)phenyl)-3H-pyrazolo[3,4-c]quinolin-4-amine]
100 to 1000	100 to 1000	< 5000	COc1cccc2nc(Nc3cccc(S(C)(=O)=O)c3)c3[nH]ncc3c12 [Example #338, 9-methoxy-N-(3-(methylsulfonyl)phenyl)-3H-pyrazolo[3,4-c]quinolin-4-amine]
